From paper PMC4700278, “Molecular and Biochemical Analysis of the Estrogenic and Proliferative Properties of Vitamin E Compounds” (Frontiers in Oncology, 2016)

Experiments:
[1] = system: PR; assay: Quantitative RT-PCR of endogenous E2-regulated gene in MCF-7 cells; format: cell-based, human; details: 500 μM, 16 h
Experimental: (§1) Figure 3 Measurement of estrogenicity of tocols in vitro. (A) Dose–response curve of the effect of tocols on MCF-7 cells stably transfected with the ERE-β-globin-tk-Luc plasmid (MELN cells). […] Data shown are the mean values ± SEM from three independent experiments. (C) δ-TP or δ-TT stabilized ER-α in MCF-7 cells. […] MCF-7 extracts were analyzed for the presence of ERα by western blotting using GAPDH as a control. […] The western blot shown is representative of three independent experiments. […] (D) Effect of δ-tocols on estrogen response element-dependent luciferase activity in HELN cells, which are HELA cells transfected with either fully functional ERα or ERβ or their mutated versions containing a deletion the AB domain (ΔAB). […] Data shown are the mean values ± SEM from three independent experiments. (E) δ-Tocols modulate the induction of endogenous genes under the control of ER. […] Cells were treated with 500 μM δ-tocols in the presence or in the absence of ICI. The relative expression of TGFα, PR, and Ps2 (TFF1) after 16 h was analyzed by quantitative RT-PCR. Data shown are the mean values ± SEM from three independent experiments.

[2] = system: Ps2 (TFF1); assay: as above; format: cell-based, human; details: 500 μM, 16 h
Experimental: as §1

[3] = system: TGFα; assay: as above; format: cell-based, human; details: 500 μM, 16 h
Experimental: as §1

[4] = molecular target: ERβ (Homo sapiens, UniProt Q92731); assay: Estrogen receptor-binding assay, competition with [3H]-17β-estradiol; parameters: expressed in transfected cells; host or cells: Cos-7; details: extracts of cos-7 cells expressing human ERβ; 2 nM [3H]-E2; tocols 1 μM to 1 mM; N.M. = not measurable
ERβ, sequence (Q92731 whole entry): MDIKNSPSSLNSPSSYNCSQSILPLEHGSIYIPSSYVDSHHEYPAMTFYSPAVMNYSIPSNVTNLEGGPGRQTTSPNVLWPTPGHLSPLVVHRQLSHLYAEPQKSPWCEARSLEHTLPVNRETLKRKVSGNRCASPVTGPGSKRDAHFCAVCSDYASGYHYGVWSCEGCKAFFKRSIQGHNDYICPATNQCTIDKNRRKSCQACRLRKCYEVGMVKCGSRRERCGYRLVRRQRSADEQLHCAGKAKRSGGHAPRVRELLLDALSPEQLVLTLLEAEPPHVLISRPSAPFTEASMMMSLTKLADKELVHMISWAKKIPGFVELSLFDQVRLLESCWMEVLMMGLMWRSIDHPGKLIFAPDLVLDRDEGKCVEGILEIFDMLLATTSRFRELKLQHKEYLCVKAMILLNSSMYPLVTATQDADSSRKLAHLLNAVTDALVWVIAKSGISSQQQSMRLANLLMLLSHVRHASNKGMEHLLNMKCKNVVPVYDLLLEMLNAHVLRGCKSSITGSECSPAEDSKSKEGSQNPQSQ

IC50 [4]: 91 ± 7 µM
Structure (SMILES): CC(C)=CCC/C(C)=C/CC/C(C)=C/CC[C@]1(C)CCc2cc(O)cc(C)c2O1 [δ-TT, δ-tocotrienol]
transcription of PR (fold increase) [1]: 1.6 fold
transcription of Ps2 (fold increase) [2]: twofold
transcription of TGFα (fold increase) [3]: 1.1 fold
